Experimental data from paper PMC6879560, “Functional annotation of serine hydrolases in the asexual erythrocytic stage of Plasmodium falciparum” (Scientific Reports, 2019).

Target: T1, Prodrug activation and resistance esterase (PfPARE) (Plasmodium falciparum, UniProt Q8IBZ2)
T1 construct: gene PF3D7_0709700; native 37 kDa species in saponin-isolated parasite lysate; also confirmed with endogenous C-terminal YFP fusion
Assay: gel-based competitive ABPP with TAMRA-FP in parasite lysate; identity confirmed by YFP-tag shift
Assay type: biochemical

T1 sequence (Q8IBZ2 entry or part of it): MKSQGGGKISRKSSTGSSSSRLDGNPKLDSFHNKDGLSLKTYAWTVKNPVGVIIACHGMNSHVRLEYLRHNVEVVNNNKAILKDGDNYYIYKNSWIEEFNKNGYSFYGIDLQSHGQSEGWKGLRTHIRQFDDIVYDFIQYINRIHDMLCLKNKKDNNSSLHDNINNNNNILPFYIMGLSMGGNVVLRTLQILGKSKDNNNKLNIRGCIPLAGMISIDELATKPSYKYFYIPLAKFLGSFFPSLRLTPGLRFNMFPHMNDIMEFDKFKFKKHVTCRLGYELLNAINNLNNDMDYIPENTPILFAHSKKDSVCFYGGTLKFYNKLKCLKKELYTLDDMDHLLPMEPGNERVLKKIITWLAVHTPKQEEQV

- IC50: 2.5 ± 0.6 nM
Structure (SMILES): O=C(OC(C(F)(F)F)C(F)(F)F)N1CCN(Cc2cccc(Oc3ccccc3)c2)CC1 [JW642]
